This note sets out measurements from ChEMBL document CHEMBL1795224, “Synthesis, in vitro antioxidant, anthelmintic and molecular docking studies of novel dichloro substituted benzoxazole-triazolo-thione derivatives” (2011).

Type in all cases: functional
The subject of assay [1] is Radical scavenging activity. The experiment in a line: Antioxidant activity assessed as DPPH free radical scavenging activity at 20 ug/4ml after 30 mins. In general terms: DPPH is a stable violet radical that fades when it is reduced.
Assay [2] relates to Metaphire posthuma. The experiment in a line: Anthelmintic activity against Pheretima posthuma assessed as death time.
Assay [3] deals with Metaphire posthuma. Put plainly: Anthelmintic activity against Pheretima posthuma assessed as death time at 1 %.
Assay [4] deals with Metaphire posthuma. Put plainly: Anthelmintic activity against Pheretima posthuma assessed as death time at 2 %.
Assay [5] relates to Metaphire posthuma. The experiment in a line: Anthelmintic activity against Pheretima posthuma assessed as death time at 3 %.
In assay [6] the test system is Metaphire posthuma. The experiment in a line: Anthelmintic activity against Pheretima posthuma assessed as time taken for complete paralysis.
Assay [7] deals with Metaphire posthuma. Put plainly: Anthelmintic activity against Pheretima posthuma assessed as time taken for complete paralysis at 1 %.
For assay [8], the system named is Metaphire posthuma. Put plainly: Anthelmintic activity against Pheretima posthuma assessed as time taken for complete paralysis at 3 %.
The test system of assay [9] is Metaphire posthuma. The experiment in a line: Anthelmintic activity against Pheretima posthuma assessed as time taken for complete paralysis at 2 %.
Assay [10] in a line: Antioxidant activity assessed as potassium ferric cyanide ion reducing power at 50 to 100 ug after 20 mins.
The nature of assay [11]: Antioxidant activity assessed as ascorbic acid equivalent antioxidant capacity at 50 to 100 ug after 90 mins by phosphomolybdenum method.

Activity calls are given as the source filed them. The rule behind the calls is not given here.

In the case of `Cc1cc(C(C)(C)C)c(O)c(C(C)(C)C)c1`, the Activity in [1] came to 16.2%.

In the case of `CCCSc1ccc2[nH]c(NC(=O)OC)nc2c1` [ALBENDAZOLE], the figures for the Time with Metaphire posthuma [2] and in the assay on Metaphire posthuma [3] were 5.37 min and 7.2 min, respectively.

On to `Sc1nc2cc(Cl)cc(Cl)c2o1`, for which the Time with Metaphire posthuma [4] was determined as 7.83 min; in the assay with Metaphire posthuma [5] it was 5.95 min; with Metaphire posthuma [2] it was 8.22 min; with Metaphire posthuma [7], 7.27 min; in the assay with Metaphire posthuma [3], 9.05 min; in the assay with Metaphire posthuma [9] it was 3.2 min. Besides, the Activity in assay [1] is 32.1%; with Metaphire posthuma [6] it was “Dose-dependent effect”; in the assay on Metaphire posthuma [8] it was “Dose-dependent effect”. Besides, the outcome in assay [10] was inactive.

For `NNc1nc2cc(Cl)cc(Cl)c2o1`, the Time in the assay with Metaphire posthuma [4] was 4.22 min; with Metaphire posthuma [5], 3.23 min; in the assay on Metaphire posthuma [2], 4.42 min; in the assay with Metaphire posthuma [7] it was 3.57 min; in the assay with Metaphire posthuma [3], 4.77 min; with Metaphire posthuma [9], 3.08 min. Moreover, the Activity is 81.5% in assay [1], “Dose-dependent effect” with Metaphire posthuma [6] and “Dose-dependent effect” in the assay on Metaphire posthuma [8]. Also, the outcome in assay [11] and in assay [10] was Active.

Regarding `S=c1[nH]nc2oc3c(Cl)cc(Cl)cc3n12`, the Time in the assay with Metaphire posthuma [4] is given as 5.49 min; with Metaphire posthuma [5] it was 4.12 min; in the assay on Metaphire posthuma [2] it was 5.48 min; in the assay on Metaphire posthuma [7] it was 4.29 min; in the assay with Metaphire posthuma [3] it was 6.48 min; in the assay on Metaphire posthuma [9], 3.82 min. The Activity in assay [1] was 74.8%; in the assay with Metaphire posthuma [6] it was “Dose-dependent effect”; in the assay on Metaphire posthuma [8], “Dose-dependent effect”. The outcome in [11] and in assay [10] was Active.

`CCOC(=O)CSc1nc2cc(Cl)cc(Cl)c2o1`: the Time in the assay with Metaphire posthuma [4] is recorded as 6.37 min; in the assay with Metaphire posthuma [5], 5.75 min; in the assay on Metaphire posthuma [2], 6.61 min; in the assay with Metaphire posthuma [7], 5.87 min; with Metaphire posthuma [3], 7.23 min; in the assay with Metaphire posthuma [9], 5.28 min. Further, the figures for the Activity (in [1]; with Metaphire posthuma [6]; with Metaphire posthuma [8]) were 9.49%, “Dose-dependent effect” and “Dose-dependent effect”, respectively. Besides, in assay [10], the result was inactive.

`CCOC(=O)CSc1nnc2oc3c(Cl)cc(Cl)cc3n12`: the Time is 5.95 min with Metaphire posthuma [4]; 4.85 min with Metaphire posthuma [5]; 5.92 min with Metaphire posthuma [2]; 4.74 min in the assay with Metaphire posthuma [7]; 6.13 min with Metaphire posthuma [3]; 4 min in the assay with Metaphire posthuma [9]. For the same molecule, the Activity is 65.7% in assay [1], “Dose-dependent effect” with Metaphire posthuma [6] and “Dose-dependent effect” with Metaphire posthuma [8]. Besides, the result in assay [11] and in assay [10] was Active.

With `O=[N+]([O-])c1ccc(NCn2nc3oc4c(Cl)cc(Cl)cc4n3c2=S)cc1`, the Time with Metaphire posthuma [4] is given as 7.07 min; in the assay on Metaphire posthuma [5], 6.64 min; with Metaphire posthuma [2] it was 7.95 min; in the assay with Metaphire posthuma [7] it was 6.58 min; with Metaphire posthuma [3], 8.33 min; in the assay with Metaphire posthuma [9], 5.97 min. Also, the results for the Activity (in [1]; in the assay on Metaphire posthuma [6]; in the assay on Metaphire posthuma [8]) were 18%, “Dose-dependent effect” and “Dose-dependent effect”, respectively. The result in assay [11] and in assay [10] was Active.
